Laboratory results taken from US20230302025A1, “METHODS FOR MAINTAINING MICROVASCULAR INTEGRITY” (SCISPARC LTD., priority 2020, published 2023).
“Also recorded” adds a separate entry of the source.

Experiments:
[1] = tested on: cortical microvasculature (BBB) of mTBI rats; experiment: Intravital microscopy (open window, fluorescent angiography) of cortical microvascular permeability in repeated mild TBI rat model; format: in vivo, Sprague-Dawley rats; conditions: repeated THC 0.002 mg/kg i.p.; 6-8 days after first injury; vs vehicle-injected controls
[2] = tested on: blood-brain barrier (BBB) of mTBI rats; experiment: Contrast-enhanced MRI of blood-brain barrier permeability in repeated mild TBI rat model; format: in vivo, Sprague-Dawley rats
mTBI rats [3] = experiment: Neurological scoring / neurological complications after repeated mild TBI; format: in vivo, Sprague-Dawley rats; conditions: daily injection of THC 0.002 mg/kg i.p.; 60% without THC
mTBI rats [4] = experiment: Electrocorticographic recording of paroxysmal slow wave events (PSWEs) in repeated mild TBI rat model; format: in vivo, Sprague-Dawley rats
[5] = intravenous, humans; cited from earlier work

Row | SMILES | cortical microvascular (BBB) permeability [1] | % of brain volume with pathological (damaged) BBB ([2]; repeated (daily, after each impact) THC 0.002 mg/kg i.p., CE-MRI after rmTBI, vs TBI vehicle) | % of brain volume with pathological voxels compared to non-injured controls ([2]; repeated THC 0.002 mg/kg i.p., CE-MRI, FIG. 1D) | effect on trauma-induced BBB breakdown ([2]; repeated THC, data from both CE-MRI and intravital microscopy) | risk for neurological complications (mTBI rats [3]) | number of PSWEs (mTBI rats [4]; repeated THC 0.002 mg/kg i.p., ECoG 3-4 weeks following injury) | number of PSWEs (mTBI rats [4]; single THC dose (THC1) 0.002 mg/kg i.p. after first impact, vs controls, FIG. 3B) | estimated lethal dose [5]
1 | CCCCCc1cc(O)c2c(c1)OC(C)(C)[C@@H]1CCC(C)=C[C@@H]21 [THC, Δ9-tetrahydrocannabinol] | lower; also recorded: reduced | Moderate decrease | not different compared to controls | mild protective and therapeutic effect | 35% | mild reduction; also recorded: lower occurrence | significant increase | 
2 | CCCCCc1cc(O)c2c(c1)OC(C)(C)[C@@H]1CCC(C)=C[C@@H]21 [dronabinol, (−)-trans-[…]9-tetrahydrocannabinol] |  |  |  |  |  |  |  | 30 mg/kg
